Results as given in paper PMC3872530 (Molecular microbiology, 2013).

Columns and labels:
Experiment in all cases: whole-cell EPR of [2Fe-2S] cluster
Assay type in all cases: cell-based
[1] = biological target: T1, ScSoxR (Streptomyces coelicolor, UniProt Q9S255); details: oxidant; 50 uM, 40 min, E. coli XA90, EPR at 15 K
T1 sequence (Q9S255 1-175): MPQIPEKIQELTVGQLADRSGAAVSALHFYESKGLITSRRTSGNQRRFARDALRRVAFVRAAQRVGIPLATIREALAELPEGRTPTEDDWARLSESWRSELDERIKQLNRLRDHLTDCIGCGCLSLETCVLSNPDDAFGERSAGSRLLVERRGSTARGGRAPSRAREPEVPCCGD

[2] = biological target: PaSoxR (Pseudomonas aeruginosa, UniProt Q51506); details: oxidant, 40 min, E. coli XA90, EPR at 15 K
[3] = biological target: T2, EcSoxR (Escherichia coli, UniProt P0ACS2); details: oxidant, 40 min, E. coli XA90, EPR at 15 K
T2 sequence (P0ACS2 1-154): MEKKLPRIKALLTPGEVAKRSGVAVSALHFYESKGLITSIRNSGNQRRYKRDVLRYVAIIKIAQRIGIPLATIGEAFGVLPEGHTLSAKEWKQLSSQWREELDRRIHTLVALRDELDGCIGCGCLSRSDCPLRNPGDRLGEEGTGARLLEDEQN

Chain of PaSoxR (Q51506 whole entry): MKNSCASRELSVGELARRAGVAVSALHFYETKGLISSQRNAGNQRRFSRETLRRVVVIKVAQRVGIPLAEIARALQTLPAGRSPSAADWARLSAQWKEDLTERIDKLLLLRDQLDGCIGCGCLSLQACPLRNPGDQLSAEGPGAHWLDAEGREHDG

Compound	whole-cell EPR of [2Fe-2S] cluster [1]	whole-cell EPR of [2Fe-2S] cluster ([2]; 50 uM)	whole-cell EPR of [2Fe-2S] cluster ([3]; 50 uM)	whole-cell EPR of [2Fe-2S] cluster ([2]; 100 uM, partial effect)	whole-cell EPR of [2Fe-2S] cluster ([3]; 100 uM)
C[n+]1c2ccccc2nc2ccccc21 [PMS, phenazine methosulfate]	The cluster was oxidized to its EPR-silent state when the cells were treated with PMS	PMS always silenced the spectral peaks	The spectra disappeared upon treatment with PQ and PMS		
C[n+]1ccc(-c2cc[n+](C)cc2)cc1 [PQ, paraquat]				PQ was partially effective in oxidizing the [2Fe-2S] cluster	The spectra disappeared upon treatment with PQ and PMS
